For one assay, the target named is Phospholipase A2 (Apis mellifera, UniProt P00630). The class given is biochemical.
Another assay has as its system zebrafish embryos. Kind of assay: Respiration rate analysis (Seahorse XF24 oxygen consumption). The class given is in vivo. Conditions: embryos from 5 hpf, versus DMSO control. How it is done: Analysis of embryonic respiration was performed using a Seahorse XF24 analyzer (Agilent). Embryos at 5 hours post fertilization were arrayed in E3 media at 3 per well in a 24-well standard Seahorse plate using an isolating mesh (as in Stackley et al^72). Each plate contained four replicates of each indicated compound of interest, as well as 4 control wells receiving the equivalent DMSO as contained in the indicated compound solution, and 4 wells with no embryos present to act as a baseline for oxygen content of the media. The sample baseline was read for 5 cycles (3 minute mix, 2 minute wait, 5 minute measure), then compounds were introduced in a single 40-cycle injection phase (3 minute mix, 2 minute wait, 5 minute measure). Measurement data were exported using Seahorse software (Agilent) and averaged over 3 experimental days.

Assay [1] concerns the target T1, recombinant human Topoisomerase I (Homo sapiens, UniProt P11387).
T1 construct: purchased TopoGEN, Inc. TG2005H
T1 sequence (P11387 1-765): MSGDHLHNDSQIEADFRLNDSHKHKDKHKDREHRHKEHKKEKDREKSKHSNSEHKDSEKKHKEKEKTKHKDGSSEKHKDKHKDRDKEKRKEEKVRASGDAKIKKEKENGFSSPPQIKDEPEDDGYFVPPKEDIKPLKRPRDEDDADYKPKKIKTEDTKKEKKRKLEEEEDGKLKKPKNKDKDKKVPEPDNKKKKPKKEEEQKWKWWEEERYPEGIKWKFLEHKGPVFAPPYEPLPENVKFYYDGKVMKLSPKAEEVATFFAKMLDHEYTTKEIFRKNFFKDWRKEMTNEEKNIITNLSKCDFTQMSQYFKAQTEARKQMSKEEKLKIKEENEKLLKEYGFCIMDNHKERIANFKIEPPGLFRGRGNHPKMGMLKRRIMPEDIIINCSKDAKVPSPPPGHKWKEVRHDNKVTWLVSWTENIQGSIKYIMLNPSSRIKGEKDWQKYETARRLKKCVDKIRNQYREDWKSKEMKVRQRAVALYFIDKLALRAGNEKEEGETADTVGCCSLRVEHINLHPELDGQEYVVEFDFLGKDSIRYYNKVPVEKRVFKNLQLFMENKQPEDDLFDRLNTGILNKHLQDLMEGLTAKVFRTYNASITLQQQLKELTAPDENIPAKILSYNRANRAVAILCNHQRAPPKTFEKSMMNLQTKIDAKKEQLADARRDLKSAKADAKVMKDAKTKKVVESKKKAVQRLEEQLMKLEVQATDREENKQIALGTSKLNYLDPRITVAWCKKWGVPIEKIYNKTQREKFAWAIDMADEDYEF
In words: Topoisomerase I and DNA binding gel electrophoresis assay. The format is biochemical. As for the experimental part:
FIG. 12: Topoisomerase I and DNA binding assay for DA5. The effect of DA5 on Topoisomerase-mediated DNA unwinding is measured through a gel electrophoresis assay (see Methods).
0.5 ug of pHOT-1 supercoiled DNA (TopoGEN, Inc. TG2030-2) was combined with 2× Topoisomerase I assay buffer (50 mM Tris-HCL (ph7.9), 1 mM EDTA, 1 mM DTT, 20% (v/v) glycerol, 50 mM NaCl), nuclease free water and either DMSO vehicle control, m-AMSA positive control (100-1000 uM; TopoGEN, Inc. […] TG2005H) was added to treatments corresponding to lanes 3-12 with 2 ul of dilution buffer (5 mM Tris-HCL (pH 7.9), 1 mM EDTA, 1 mM DTT, 50% (v/v) glycerol, 500 mM NaCl) added to control treatments lacking enzyme (lanes 2, 13 and 14). Reactions were mixed and incubated at 37° C. for 30 minutes. Reactions were terminated with the addition of 20 ul nuclease free water and 50 ul of 1-butanol (water-saturated) followed by vortex and centrifugation at 13,000 rpm for 1 minute. The lower aqueous phase was removed and added to 50 ul chloroform/isoamyl alcohol (24/1) and 50 ul of 2×STEB buffer (40% (w/v) sucrose, 100 mM Tris-HCL (pH 8), 1 mM EDTA, 0.5 mg/ml bromophenol blue) followed by mixing and centrifugation at 13,000 rpm for 1 minute. […] The gel was stained with ethidium bromide for 15 minutes followed by de-staining in distilled water for 10 minutes. Gels were exposed and images acquired using the iBrightFL1000 gel documentation system (Invitrogen).

In a further assay the test system is embryonic zebrafish. Kind of assay: Blinded re-screen of top 10 prioritized ChemBridge compounds for developmental phenotypes in embryonic zebrafish. The class given is in vivo. As for the experimental part: Male and female wild-type (AB) fish were housed and embryos bred for screening using standard protocols. […] 10 mM compound stocks were diluted to 2 mM using DMSO, and 1 μL of each diluted compound solution was introduced into individual wells at 5 hours post fertilization (hpf) using a manual multichannel pipettor (10 uM final concentration). The first and last column of each plate received only DMSO, serving as negative control wells.
Embryos were screened for a series of developmental phenotypes at both 24 and 48 hpf using standard light microscopy. […] Only those wells where at least two of the three embryos were dead or delayed were annotated as a hit for 24 hour death or delay/arrest, respectively.
Resulting scores for each phenotype were used to rank the over 900,000 compounds. Enrichment for compounds with high (>0.95) similarity to known therapeutics (defined using Tanimoto Coefficient of molecular fingerprints) was calculated for each of the 6 ranked lists using gene set enrichment analysis^69. The top 10 highest-ranking compounds from each of the 6 lists were screened as described above, blinded and in duplicate.

In assay [2] the test system is Phospholipase D (Streptomyces chromofuscus). Kind of assay: In vitro Phospholipase D activity assay (Amplex Red kit). The format is biochemical. Conditions: listed as DA5.
The target in a further assay is T2, Phospholipase C (Bacillus cereus, UniProt P09598).
T2 construct: purchased Thermo Fisher
Kind of assay: In vitro Phospholipase C activity assay (EnzChek Direct kit). The format is biochemical. As for the experimental part:
Phospholipase D, C, and A2 activity were measured in vitro using commercial kits. For Phospholipase D, the Amplex Red Phospholipase D Assay Kit (Thermo Fisher) was used with Phospholipase D (Streptomyces chromofuscus—Enzo Life Sciences) added, and FIPI (4-Fluoro-N-(2-(4-(5-fluoro-1H-indol-1-yl)piperidin-1-yl)ethyl)benzamide, 5-Fluoro-2-indolyl deschlorohalopemide) hydrochloride (Sigma) acting as a positive control. To assay Phospholipase A2 activity, we used an EnzChek Phospholipase A2 Assay kit (Thermo Fisher) with Manoalide (Santa Cruz) as a positive control. To assay Phospholipase C activity, we used an EnzChek Direct Phospholipase C Assay Kit (Thermo Fisher) with D609 (Sigma) as a positive control. Tyrosinase activity was measured using a colorimetric Tyrosinase inhibitor screening kit (BioVision) with PTU as a positive control. For each assay, solutions were prepared in 96-well black clear bottom plates and read using a FLUOstar Omega plate reader at the wavelengths recommended by the respective manufacturers, with each measurement representing the average of at least 4 plate wells.

Entries after “also recorded” stand apart in the source; their conditions may differ.

Chain of Phospholipase A2 (P00630 34-167 limits assumed): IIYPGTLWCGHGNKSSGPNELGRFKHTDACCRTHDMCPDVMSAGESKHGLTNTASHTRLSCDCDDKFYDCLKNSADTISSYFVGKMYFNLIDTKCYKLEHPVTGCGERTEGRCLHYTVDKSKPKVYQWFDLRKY
T2 sequence (P09598 39-283 limits assumed): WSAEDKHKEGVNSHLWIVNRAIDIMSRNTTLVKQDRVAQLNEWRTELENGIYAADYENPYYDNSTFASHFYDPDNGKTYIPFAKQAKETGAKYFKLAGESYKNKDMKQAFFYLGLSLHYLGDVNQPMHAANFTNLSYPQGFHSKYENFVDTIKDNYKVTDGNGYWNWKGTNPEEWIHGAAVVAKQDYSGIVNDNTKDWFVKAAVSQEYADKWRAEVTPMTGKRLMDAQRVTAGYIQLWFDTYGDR

With `CCC1(CC)CCN(C(=O)c2cc(COc3ccc4ncccc4c3)on2)C1` [ChemBridge ID 65692859, 6-([3-[(3,3-diethylpyrrolidin-1-yl)carbonyl]isoxazol-5-yl]methoxy)quinoline], the “activity of phospholipase A2” value at Phospholipase A2 is listed as “increased activity”. Further, the “respiration rate (oxygen consumption rate)” value in the assay on zebrafish embryos was “consistent respiration rate”. Moreover, in assay [1] (DNA intercalation analysis, listed as DA5), the “DNA-binding / DNA intercalation / inhibition of Topoisomerase I” value was “not due to DNA-binding or inhibition of Topoisomerase (TOPO) I; also recorded: not observed”. In addition, the “effect on Topoisomerase-mediated DNA unwinding (gel electrophoresis)” value in assay [1] (concentrations up to 100 mM (so in the source), versus DMSO) is “no more effect on DNA cleavage than DMSO”. Besides, the “Hit (predicted phenotype observed)” value in the assay on embryonic zebrafish (Prediction: Delay/Arrest) is given as “Yes”. The “Phenotype Observed” value in the assay on embryonic zebrafish (embryonic zebrafish, 10 uM introduced at 5 hpf, scored at 24 and 48 hpf, blinded, in duplicate) is on record as “Bud stage at 24 h, dead at 48 h”. Besides, in assay [2], the “activity of phospholipase D” value is “decrease in the activity; also recorded: inhibit phospholipase D activity”. On Phospholipase C, the “activity of phospholipase C” value is “increased activity”.

Source of the values: patent US12605374B2, “Methods for drug screening and compositions useful for the inhibition of cell proliferation and/or cell survival” (The Brigham and Women's Hospital, Inc., priority 2019, dated 2026).
